Values after ≈ are worked out from the molar mass of the structure shown.
How the values were obtained:
BTK = settings: anti-IgM induced BTK Y223 autophosphorylation in human whole blood; previously presented Keaney J, et al. 2019; cited from earlier work
[1] = test system: CD63 expression on myeloid lineage cells (basophils); settings: in vitro human whole blood assay; previously presented Weber M S, et al. AAN 2021; cited from earlier work
[2] = test system: inflammatory cytokine production from myeloid cells (including TNF-α); settings: in vitro cell-based experiments; cited from earlier work
[3] = test system: new gadolinium-enhancing T1 (T1Gd+) lesions on brain MRI; assay: New gadolinium-enhancing T1 (T1Gd+) lesions on brain MRI, Phase II RMS study (primary endpoint); format: in vivo, human
Source text: (§1) This Phase II study was undertaken to evaluate the effect of fenebrutinib on brain magnetic resonance imaging (MRI) in participants with RMS. Participants were randomized to receive either fenebrutinib or placebo. In addition to MRI evaluations, participants were also monitored for other clinical outcomes of disease, including disability progression and MS relapse, as described more fully below.
(§2) Study Design: This clinical trial comprised a double-blind treatment (DBT) phase, where participants were randomized in a 2:1 ratio to receive either 200 mg BID oral fenebrutinib or non-active placebo, administered for 12 weeks. Participants were directed to self-administer two 100 mg tablets in the morning and two 100 mg tablets in the evening by mouth, for a total dose of 400 mg of fenebrutinib (or placebo) every day.
(§3) A total of 109 adults aged 18-55 with RMS were enrolled in the study: 73 in the fenebrutinib arm, and 36 in the placebo arm. […] Accordingly, the analysis of outcome for the double blind phase of the study included 70 patients in the fenebrutinib arm, and 36 patients in the placebo arm.
MRI Measurements: The primary efficacy endpoint for this study was the total number of new gadolinium-enhancing T1 (T1Gd+) lesions on brain MRI measured at Weeks 4, 8, and 12 of administration. The secondary efficacy outcomes were (1) the total number of new or enlarging T2-weighted lesions on brain MRI measured at Weeks 4, 8, and 12, and (2) the proportion of participants free from any new Gd-enhancing T1 lesions and new or enlarging T2-weighted lesions observed on brain MRI at Weeks 4, 8, and 12. Radiologic evaluation for the primary efficacy parameter was performed using a standardized MRI protocol at screening, and at Weeks 4, 8, and 12 for each participant. […]
Results: Primary Endpoint (Total Number of New T1 Gd+ Lesions at Weeks 4, 8, and 12, combined): The primary endpoint of this study was met. In the treatment arm (n=70), a 69% relative reduction in new T1 Gd+ lesions was observed, compared to placebo, with a p value of 0.0022. FIG. 2 provides bar graphs illustrating some of the data in these tables, and providing additional analyses. In this figure, the large arrows indicate the relative reduction (95% confidence interval) of lesions. The proportion of patients with new T1 Gd+ lesions is the number of participants that have a new lesion at that specific visit alone divided by the number of participants with a scan at that specific visit alone at the indicated week. […] There was a 90% reduction and only 3.2% of patients with new T1 Gd+ Lesions lesions at Week 12.

[4] = test system: new or enlarging T2-weighted lesions on brain MRI; assay: New or enlarging T2-weighted lesions on brain MRI, Phase II RMS study (secondary endpoint); format: in vivo, human
Source text: as §1, §2, §3
MRI Measurements: The primary efficacy endpoint for this study was the total number of new gadolinium-enhancing T1 (T1Gd+) lesions on brain MRI measured at Weeks 4, 8, and 12 of administration. The secondary efficacy outcomes were (1) the total number of new or enlarging T2-weighted lesions on brain MRI measured at Weeks 4, 8, and 12, and (2) the proportion of participants free from any new Gd-enhancing T1 lesions and new or enlarging T2-weighted lesions observed on brain MRI at Weeks 4, 8, and 12. Radiologic evaluation for the primary efficacy parameter was performed using a standardized MRI protocol at screening, and at Weeks 4, 8, and 12 for each participant.
Results: Secondary Endpoint-Total Number of New or Enlarging T2-Weighted Lesions at Weeks 4, 8, and 12 combined: This secondary endpoint was met, and a summary of this secondary endpoint analysis is provided in Table 5. FIG. 3 provides bar graphs illustrating some of the data in these tables and providing additional analyses. In this figure, the large arrows indicate the relative reduction (95% confidence interval) of lesions. The proportion of patients with new/enlarging T2-weighted lesions is the number of participants that have a new lesion at that specific visit alone divided by the number of participants with a scan at that specific visit alone at the indicated week. There was a 95% reduction and only 3.2% of patients with new/enlarging lesions at Week 12.

[5] = test system: BCR-dependent B-cell proliferation; settings: in vitro cell-based experiments; cited from earlier work
[6] = test system: CD69 expression on B cells; settings: in vitro human whole blood assay; previously presented Weber M S, et al. AAN 2021; cited from earlier work
[7] = Week 12, participants with a new lesion at that visit divided by participants with a scan at that visit

C[C@H]1CN(C2COC2)CCN1c1ccc(Nc2cc(-c3ccnc(N4CCn5c(cc6c5CC(C)(C)C6)C4=O)c3CO)cn(C)c2=O)nc1 [Fenebrutinib, (S)-2-(3′-(hydroxymethyl)-1-methyl-5-((5-(2-methyl-4-(oxetan-3-yl)piperazin-1-yl)pyridin-2-yl)amino)-6-oxo-1,6-dihydro-[3,4′-bipyridin]-2′-yl)-7,7-dimethyl-2,3,4,6,7,8-hexahydro-1H-cyclopenta[4,5]pyrrolo[1,2-a]pyrazin-1-one]
IC90, phospho-BTK (BTK): 0.0404 µg/mL (≈ 0.0608 µM) | IC90, CD63 (myeloid lineage cell activation marker) [1]: 0.0412 µg/mL (≈ 0.062 µM) | inflammatory cytokine production from myeloid cells [2]: reduction of inflammatory cytokine production from myeloid cells | Number of New T1 Gd+ Lesions, Mean (SD), Week 4 ([3]; 200 mg BID oral, Week 4, n = 70, min-max 0-4, placebo 0.389 (0.871)): 0.343 (0.849) | Number of New T1 Gd+ Lesions, Mean (SD), Week 8 ([3]; 200 mg BID oral, Week 8, n = 67, min-max 0-3, placebo 0.441 (0.960)): 0.045 (0.367) | Number of New T1 Gd+ Lesions, Mean (SD), Week 12 ([3]; 200 mg BID oral, Week 12, n = 63, min-max 0-1, placebo 0.273 (0.674)): 0.032 (0.177) | Total Number of New T1Gd+ Lesions ([3]; 200 mg BID oral, Weeks 4, 8, and 12 combined, N = 70, 201 scans, placebo 38): 29 | New T1Gd+ Lesion rate, adjusted ([3]; 200 mg BID oral, Weeks 4, 8, and 12 combined, Negative Binomial regression model, placebo 0.245): 0.077 | New T1Gd+ Lesion rate, unadjusted ([3]; 200 mg BID oral, Weeks 4, 8, and 12 combined, total lesions divided by total number of scans, placebo 0.369): 0.144 | proportion of patients with new T1 Gd+ lesions, Week 12 [3, 7]: 3.2% | patients with new T1 Gd+ lesions after week four ([3]; after week four of treatment): Few patients had new lesions after week four of treatment | Relative Reduction of total number of new T1 Gd+ lesions, Week 4 ([3]; vs placebo, Week 4, 95% CI −92%, 68%): 22% | Relative Reduction of total number of new T1 Gd+ lesions, Week 8 ([3]; vs placebo, Week 8, 95% CI 65%, 98%): 92% | Relative Reduction of total number of new T1 Gd+ lesions, Week 12 ([3]; vs placebo, Week 12, 95% CI 52%, 98%): 90% | Rate Ratio, adjusted (new T1Gd+ lesions) ([3]; vs placebo, Weeks 4, 8, and 12 combined, 95% CI (0.149, 0.658)): 0.313 | Relative Reduction in new T1 Gd+ lesions ([3]; vs placebo, Weeks 4, 8, and 12 combined, 95% CI (34%, 85%), p-value 0.0022): 69% | Relative Reduction of total number of new T1 Gd+ lesions, Weeks 8 and 12 ([3]; vs placebo, Weeks 8 and 12): 92% | Number of New or Enlarging T2-Weighted Lesions, Mean (SD), Week 4 ([4]; 200 mg BID oral, Week 4, n = 70, min-max 0-21, placebo 1.222 (2.218)): 1.043 (2.990) | Number of New or Enlarging T2-Weighted Lesions, Mean (SD), Week 8 ([4]; 200 mg BID oral, Week 8, n = 67, min-max 0-4, placebo 0.824 (1.359)): 0.104 (0.526) | Number of New or Enlarging T2-Weighted Lesions, Mean (SD), Week 12 ([4]; 200 mg BID oral, Week 12, n = 63, min-max 0-1, placebo 0.545 (1.121)): 0.032 (0.177) | Total Number of New or Enlarging T2-Weighted Lesions ([4]; 200 mg BID oral, Weeks 4, 8, and 12 combined, N = 70, 201 scans, placebo 90): 82 | New or Enlarging T2-Weighted Lesion rate, adjusted ([4]; 200 mg BID oral, Weeks 4, 8, and 12 combined, placebo 0.634): 0.168 | New or Enlarging T2-Weighted Lesion rate, unadjusted ([4]; 200 mg BID oral, Weeks 4, 8, and 12 combined, placebo 0.874): 0.408 | proportion of patients with new/enlarging T2-weighted lesions, Week 12 [4, 7]: 3.2% | Relative Reduction of New or Enlarging T2-Weighted Lesions, Week 4 ([4]; vs placebo, Week 4, 95% CI −13%, 77%): 49% | Relative Reduction of New or Enlarging T2-Weighted Lesions, Week 8 ([4]; vs placebo, Week 8, 95% CI 72%, 96%): 90% | Relative Reduction of New or Enlarging T2-Weighted Lesions, Week 12 ([4]; vs placebo, Week 12, 95% CI 77%, 99%): 95% | Rate Ratio, adjusted (new or enlarging T2-weighted lesions) ([4]; vs placebo, Weeks 4, 8, and 12 combined, 95% CI (0.128, 0.550)): 0.265 | Relative Reduction in new or enlarging T2-weighted lesions ([4]; vs placebo, Weeks 4, 8, and 12 combined, 95% CI (45.0%, 87.2%), p-value 0.0004): 73.5% | Relative Reduction of New or Enlarging T2-Weighted Lesions, Weeks 8 and 12 ([4]; vs placebo, Weeks 8 and 12): 93% | BCR-dependent B-cell proliferation [5]: inhibition of BCR-dependent B-cell proliferation | IC90, CD69 (B-cell activation marker) [6]: 0.0432 µg/mL (≈ 0.065 µM)
